Data set [1] is described as follows: 5-fluorouracil blood concentration / absorption by other dosage forms, compared with effective concentration in blood. It is filed as in vivo. An excerpt: Thus, it has been clearly known that the dosage in the form of the insertion composition of the present invention is quite excellent.
The conditions of data set [2]: known value; cited from earlier work.
Data set [3] is described as follows: Concentration of 5-fluorouracil in the serum after insertion into the rectum of a rabbit. It is filed as in vivo. The settings on record: insertion composition of Example 16, rabbit; 3 hours after the insertion. As for the experimental part: When the pharmaceutical insertion composition of the present invention is inserted into the rectum, its concentration in the serum is as follows:
A pharmaceutical insertion composition obtained in Example 16 is inserted into the rectum of a rabbit having the body weight of 3.2 kg at the rate of 20 mg of 5-fluoroaracil per 1 kg of the body weight, and the concentration of 5-fluorouracil in the serum after the insertion is measured to show the following results: […]

Each structure is given as a SMILES string.

On to `O=c1[nH]cc(F)c(=O)[nH]1` [5-fluorouracil], for which, in data set [1] (conventional suppository or liquid), the “absorption from conventional suppository or liquid form” value was “barely absorbed”. In addition, in data set [1] (injected into vein, 30 minutes later), the “concentration in blood after injection into vein” value is listed as “less than the effective blood concentration”. Also, the “effective concentration in blood” value in data set [2] was “about 0.08 μg/ml”. Further, in data set [3], the “maintenance of effective concentration in blood after rectal insertion of the gel composition” value is on record as “maintains sufficient effective concentration in blood”.
